Assay results reported in ChEMBL document CHEMBL1152295, “Novel 3,3-disubstituted pyrrolidines as selective triple serotonin/norepinephrine/dopamine reuptake inhibitors” (Bioorg Med Chem Lett, 2008).

Assays:
in vitro [1] = settings: human
in vitro [2] = settings: human; remark: listed apart in the source
in vitro [3] = settings: human, liver microsomes
Caco-2 [4] = settings: human, caco-2, 10 µM
Caco-2 [5] = settings: human, caco-2, 10 µM; remark: listed apart in the source

c1ccc(CC2(c3ccc4[nH]ccc4c3)CCNC2)nc1 (stereo not drawn)
Papp B→A at 10 µM (in vitro [1]; Caco-2, Papp): 18 ×10⁻⁶ cm/s | Papp A→B at 10 µM (in vitro [2]; Caco-2, Papp): 3.2 ×10⁻⁶ cm/s | microsomal CLint (in vitro [3]; Stability): 86 µL/min/mg

NC(=O)c1cc2cc(C3(Cc4ccccc4)CCNC3)ccc2[nH]1 (stereo not drawn)
Papp B→A at 10 µM (in vitro [1]; Caco-2, Papp): 17 ×10⁻⁶ cm/s | Papp A→B at 10 µM (in vitro [2]; Caco-2, Papp): 0.6 ×10⁻⁶ cm/s | microsomal CLint (in vitro [3]; Stability): 1.4 µL/min/mg

Cn1ccc2cc(C3(Cc4ccccc4)CCNC3)ccc21 (stereo not drawn)
microsomal CLint (in vitro [3]; Stability): 106 µL/min/mg

CN(C)C(=O)c1cc2cc(C3(Cc4ccccc4)CCNC3)ccc2[nH]1 (stereo not drawn)
Papp B→A at 10 µM (in vitro [1]; Caco-2, Papp): 24 ×10⁻⁶ cm/s | Papp A→B at 10 µM (in vitro [2]; Caco-2, Papp): 4 ×10⁻⁶ cm/s | microsomal CLint (in vitro [3]; Stability): 12.8 µL/min/mg

CCCC1(c2ccc3[nH]ccc3c2)CCNC1 (stereo not drawn)
Papp B→A at 10 µM (in vitro [1]; Caco-2): 24 ×10⁻⁶ cm/s | Papp A→B at 10 µM (in vitro [2]; Caco-2): 16.5 ×10⁻⁶ cm/s | microsomal CLint (in vitro [3]): 2.3 µL/min/mg

CCCCC1(c2ccc3[nH]ccc3c2)CCNC1 (stereo not drawn)
Papp B→A at 10 µM (in vitro [1]; Caco-2, Papp): 19 ×10⁻⁶ cm/s | Papp A→B at 10 µM (in vitro [2]; Caco-2, Papp): 9.4 ×10⁻⁶ cm/s | microsomal CLint (in vitro [3]; Stability): 38 µL/min/mg

c1ccc(CC2(c3ccc4sccc4c3)CCNC2)cc1 (stereo not drawn)
microsomal CLint (in vitro [3]; Stability): 198 µL/min/mg

CCOC(=O)c1cc2cc(C3(Cc4ccccc4)CCNC3)ccc2[nH]1 (stereo not drawn)
Papp B→A at 10 µM (in vitro [1]; Caco-2, Papp): 3.4 ×10⁻⁶ cm/s | Papp A→B at 10 µM (in vitro [2]; Caco-2, Papp): 3.5 ×10⁻⁶ cm/s | microsomal CLint (in vitro [3]; Stability): 47.8 µL/min/mg

Fc1ccc(CC2(c3ccc4[nH]ccc4c3)CCNC2)cc1 (stereo not drawn)
microsomal CLint (in vitro [3]; Stability): 84 µL/min/mg

COc1cccc(CC2(c3ccc4[nH]ccc4c3)CCNC2)c1 (stereo not drawn)
microsomal CLint (in vitro [3]; Stability): 77 µL/min/mg

c1ccc(CC2(c3ccc4[nH]ncc4c3)CCNC2)cc1 (stereo not drawn)
Papp B→A at 10 µM (in vitro [1]; Caco-2, Papp): 22 ×10⁻⁶ cm/s | Papp A→B at 10 µM (in vitro [2]; Caco-2, Papp): 10 ×10⁻⁶ cm/s | microsomal CLint (in vitro [3]; Stability): 28 µL/min/mg

c1ccc(CC2(c3ccc4[nH]ccc4c3)CCNC2)cc1 (stereo in doubt; 16) [5-(3-BENZYLPYRROLIDIN-3-YL)-1H-INDOLE (STRUCTURAL MIX)]
Papp (Caco-2 [4]): 14 ×10⁻⁶ cm/s | Papp (Caco-2 [5]): 17 ×10⁻⁶ cm/s

c1ccc(CC2(c3ccc4[nH]ccc4c3)CCNC2)cc1 (stereo in doubt; (+)-16) [5-(3-BENZYLPYRROLIDIN-3-YL)-1H-INDOLE (STRUCTURAL MIX)]
Papp B→A at 10 µM (in vitro [1]; Caco-2, Papp): 9.9 ×10⁻⁶ cm/s | Papp A→B at 10 µM (in vitro [2]; Caco-2, Papp): 21 ×10⁻⁶ cm/s | microsomal CLint (in vitro [3]; Stability): 154 µL/min/mg

Clc1ccc([C@]23CNC[C@H]2C3)cc1Cl [AMITIFADINE]
Papp B→A at 10 µM (in vitro [1]; Caco-2): 2.1 ×10⁻⁶ cm/s | Papp A→B at 10 µM (in vitro [2]; Caco-2): 2.9 ×10⁻⁶ cm/s | microsomal CLint (in vitro [3]): 47 µL/min/mg
